Patent publication US20240246934A1, “QUINAZOLINE-BASED COMPOUND, COMPOSITION, AND APPLICATION OF QUINAZOLINE-BASED COMPOUND” (BEIJING SCITECH-MQ PHARMACEUTICALS LIMITED, priority 2021, published 2024)
pIC50: −log10 of the molar value.

Legend:
[1] = molecular target: Ba/F3 EGFR D770_N771insSVD cells (Homo sapiens, UniProt P00533, DUP768-770, cells depend on it); test: Inhibition of cell proliferation, CTG method, Ba/F3 EGFR D770_N771insSVD; assay type: cell-based; conditions: 72 hours, read-out: Ba/F3 EGFR D770_N771insSVD IC50
Ba/F3 EGFR D770_N771insSVD cells, sequence (P00533 with tags, fused parts or gaps DUP768-770): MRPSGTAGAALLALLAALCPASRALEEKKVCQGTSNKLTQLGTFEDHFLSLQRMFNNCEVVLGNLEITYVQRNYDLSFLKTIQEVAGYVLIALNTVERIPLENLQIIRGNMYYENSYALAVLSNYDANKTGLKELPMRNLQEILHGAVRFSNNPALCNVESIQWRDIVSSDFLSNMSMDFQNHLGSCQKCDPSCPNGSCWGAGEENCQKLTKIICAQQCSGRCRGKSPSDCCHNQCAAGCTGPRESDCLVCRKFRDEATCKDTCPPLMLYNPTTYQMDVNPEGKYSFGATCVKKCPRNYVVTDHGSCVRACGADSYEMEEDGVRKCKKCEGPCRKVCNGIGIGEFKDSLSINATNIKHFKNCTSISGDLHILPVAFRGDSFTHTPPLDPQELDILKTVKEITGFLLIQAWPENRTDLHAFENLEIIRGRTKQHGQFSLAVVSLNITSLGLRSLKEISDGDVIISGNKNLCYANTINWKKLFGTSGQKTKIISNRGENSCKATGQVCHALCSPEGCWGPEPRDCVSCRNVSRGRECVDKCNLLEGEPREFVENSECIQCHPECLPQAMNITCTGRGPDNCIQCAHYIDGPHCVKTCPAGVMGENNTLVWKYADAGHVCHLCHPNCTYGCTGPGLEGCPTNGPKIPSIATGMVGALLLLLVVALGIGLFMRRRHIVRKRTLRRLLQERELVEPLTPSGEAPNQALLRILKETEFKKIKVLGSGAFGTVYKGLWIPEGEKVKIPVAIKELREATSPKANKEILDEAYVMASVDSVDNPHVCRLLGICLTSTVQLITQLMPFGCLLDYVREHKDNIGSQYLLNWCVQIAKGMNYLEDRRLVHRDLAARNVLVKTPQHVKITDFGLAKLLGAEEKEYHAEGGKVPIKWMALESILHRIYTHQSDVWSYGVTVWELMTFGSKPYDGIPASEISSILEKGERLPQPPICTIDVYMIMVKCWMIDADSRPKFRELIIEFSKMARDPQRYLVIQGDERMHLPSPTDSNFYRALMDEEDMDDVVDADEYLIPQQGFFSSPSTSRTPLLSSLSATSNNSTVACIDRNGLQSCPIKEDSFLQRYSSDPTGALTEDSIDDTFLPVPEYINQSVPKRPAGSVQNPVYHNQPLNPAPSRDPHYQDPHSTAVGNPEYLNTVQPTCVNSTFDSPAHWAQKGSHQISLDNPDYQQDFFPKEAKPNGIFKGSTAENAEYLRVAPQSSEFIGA
Source text: The present application examined the in vitro anti-proliferative activity of the compounds of the present disclosure against in vitro cultured BT474, NCI-N87, Ba/F3-EGFR-VIII and Ba/F3 HER2 A775_G776insYVMA and Ba/F3 EGFR D770_N771insSVD cell lines by CTG method.
Reagents and consumables: RPMI1640 (ThermoFisher, Cat. No. C11875500BT); fetal bovine serum (Hyclone, Cat. No. SV30087.03); 0.25% trypsin-EDTA (ThermoFisher, Cat. No. 25200-072); penicillin-streptomycin (Hyclone, Cat. No. SV30010); DMSO (Amresco, Cat. No. 0231-500ML); CTG assay kit (Promega, Cat. No. G924C); 96-well plate (Corning, Cat. No. 3603); multifunctional plate reader (Perkin Elmer, Cat. No. Envision)
Cell lines: BT474 (from the cell bank of Chinese Academy of Sciences), NCI-N87 (from ATCC), Ba/F3-EGFR-VIII, Ba/F3 HER2 A775_G776insYVMA and Ba/F3 EGFR D770_N771insSVD (all from KYinno Biotechnology (Beijing) Co., Ltd.); all of the above cells were cultured with RPMI1640 medium containing 10% fetal bovine serum, 100 U/mL penicillin, and 100 μg/mL streptomycin in the culture process.
1. The assay compound was dissolved with DMSO to form a stock solution and a gradient dilution was performed, followed by dilution with the corresponding medium to obtain a solution with 5-fold working concentration.
2. Cells in logarithmic growth phase were adjusted to specific cell densities by dilution with culture medium, and 80 μL of cell suspension was added to a 96-well plate, such that plating densities of cells of BT474, NCI-N87, Ba/F3-EGFR-VIII, Ba/F3 HER2 A775_G776insYVMA and Ba/F3 EGFR D770_N771insSVD were all 3000 cells/well. The cells of Ba/F3-EGFR-VIII, Ba/F3 HER2 A775_G776insYVMA and Ba/F3 EGFR D770_N771insSVD were used directly in the next step (treatment with compound), whereas the BT474 and NCI-N87 needed to be cultured overnight in a 37° C., 5% carbon dioxide gas incubator to adhere to the wall, and then treated with compounds.
3. 20 μL of compound solution was added to each well of the 96-well plate that had been inoculated with cells. The highest concentration of the assayed compound was 10 μM, 4-fold serial dilution, a total of 9 concentrations, and duplicate wells. A control group without compound was also set up.
4. The cells were cultured for another 72 hours, and then cell viability was detected by CTG assay kit. Signal values were read with a multifunctional plate reader (Perkin Elmer). GraphPad Prism software was used to create a dose-response curve and IC50 was calculated.

EGFR^WT kinase = EGFR^WT kinase (Homo sapiens, UniProt P00533); test: EGFR^WT kinase assay (ULight/PT66 TR-FRET); assay type: biochemical
EGFR^WT kinase, sequence (P00533 25-1210): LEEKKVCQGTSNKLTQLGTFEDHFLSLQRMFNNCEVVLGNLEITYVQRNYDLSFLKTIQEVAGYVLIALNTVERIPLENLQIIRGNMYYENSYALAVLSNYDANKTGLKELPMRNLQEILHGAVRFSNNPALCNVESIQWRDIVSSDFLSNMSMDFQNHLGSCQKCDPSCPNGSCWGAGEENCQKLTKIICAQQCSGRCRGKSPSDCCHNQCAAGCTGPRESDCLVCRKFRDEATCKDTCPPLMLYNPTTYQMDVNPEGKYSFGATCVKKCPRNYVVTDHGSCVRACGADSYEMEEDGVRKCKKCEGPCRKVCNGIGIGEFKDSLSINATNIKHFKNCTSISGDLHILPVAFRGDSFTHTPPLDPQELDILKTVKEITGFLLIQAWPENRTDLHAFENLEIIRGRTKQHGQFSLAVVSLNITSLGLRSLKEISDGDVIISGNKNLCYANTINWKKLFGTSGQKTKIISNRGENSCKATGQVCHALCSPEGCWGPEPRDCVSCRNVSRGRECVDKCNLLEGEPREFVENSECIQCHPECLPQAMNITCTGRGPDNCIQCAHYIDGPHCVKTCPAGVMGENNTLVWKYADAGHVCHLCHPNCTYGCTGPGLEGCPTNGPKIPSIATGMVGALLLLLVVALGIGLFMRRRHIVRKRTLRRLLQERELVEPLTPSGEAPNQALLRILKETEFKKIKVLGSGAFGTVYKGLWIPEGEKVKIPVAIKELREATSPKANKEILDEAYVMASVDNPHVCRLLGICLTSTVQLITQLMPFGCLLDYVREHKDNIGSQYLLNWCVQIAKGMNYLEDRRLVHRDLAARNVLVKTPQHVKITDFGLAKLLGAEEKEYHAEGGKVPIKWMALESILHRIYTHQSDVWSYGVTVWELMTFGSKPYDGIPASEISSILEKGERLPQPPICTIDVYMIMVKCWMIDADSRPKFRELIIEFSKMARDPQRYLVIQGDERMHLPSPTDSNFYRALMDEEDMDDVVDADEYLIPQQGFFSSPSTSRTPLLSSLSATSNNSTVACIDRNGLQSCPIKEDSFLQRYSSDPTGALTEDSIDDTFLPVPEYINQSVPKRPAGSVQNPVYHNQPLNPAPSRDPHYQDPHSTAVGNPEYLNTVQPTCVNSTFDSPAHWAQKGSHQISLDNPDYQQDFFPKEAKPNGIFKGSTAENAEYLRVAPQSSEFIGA
How it was run: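 Enzyme preincubated 5 min with compound (11-point 3-fold series, duplicate), then ULight-JAK-1 (Tyr1023) peptide and ATP added at 4× stocks of 400 nM and 600 μM; 120 min reaction at room temperature. PT66 antibody TR-FRET read after 60 min; IC50 fitted from inhibition rates.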

HER2 kinase = molecular target: T1, HER2 kinase (Homo sapiens, UniProt P04626); test: HER2 kinase assay (ULight/PT66 TR-FRET); assay type: biochemical
T1 construct: purchased Carna Biosciences 08-016
T1 sequence (P04626 23-1255): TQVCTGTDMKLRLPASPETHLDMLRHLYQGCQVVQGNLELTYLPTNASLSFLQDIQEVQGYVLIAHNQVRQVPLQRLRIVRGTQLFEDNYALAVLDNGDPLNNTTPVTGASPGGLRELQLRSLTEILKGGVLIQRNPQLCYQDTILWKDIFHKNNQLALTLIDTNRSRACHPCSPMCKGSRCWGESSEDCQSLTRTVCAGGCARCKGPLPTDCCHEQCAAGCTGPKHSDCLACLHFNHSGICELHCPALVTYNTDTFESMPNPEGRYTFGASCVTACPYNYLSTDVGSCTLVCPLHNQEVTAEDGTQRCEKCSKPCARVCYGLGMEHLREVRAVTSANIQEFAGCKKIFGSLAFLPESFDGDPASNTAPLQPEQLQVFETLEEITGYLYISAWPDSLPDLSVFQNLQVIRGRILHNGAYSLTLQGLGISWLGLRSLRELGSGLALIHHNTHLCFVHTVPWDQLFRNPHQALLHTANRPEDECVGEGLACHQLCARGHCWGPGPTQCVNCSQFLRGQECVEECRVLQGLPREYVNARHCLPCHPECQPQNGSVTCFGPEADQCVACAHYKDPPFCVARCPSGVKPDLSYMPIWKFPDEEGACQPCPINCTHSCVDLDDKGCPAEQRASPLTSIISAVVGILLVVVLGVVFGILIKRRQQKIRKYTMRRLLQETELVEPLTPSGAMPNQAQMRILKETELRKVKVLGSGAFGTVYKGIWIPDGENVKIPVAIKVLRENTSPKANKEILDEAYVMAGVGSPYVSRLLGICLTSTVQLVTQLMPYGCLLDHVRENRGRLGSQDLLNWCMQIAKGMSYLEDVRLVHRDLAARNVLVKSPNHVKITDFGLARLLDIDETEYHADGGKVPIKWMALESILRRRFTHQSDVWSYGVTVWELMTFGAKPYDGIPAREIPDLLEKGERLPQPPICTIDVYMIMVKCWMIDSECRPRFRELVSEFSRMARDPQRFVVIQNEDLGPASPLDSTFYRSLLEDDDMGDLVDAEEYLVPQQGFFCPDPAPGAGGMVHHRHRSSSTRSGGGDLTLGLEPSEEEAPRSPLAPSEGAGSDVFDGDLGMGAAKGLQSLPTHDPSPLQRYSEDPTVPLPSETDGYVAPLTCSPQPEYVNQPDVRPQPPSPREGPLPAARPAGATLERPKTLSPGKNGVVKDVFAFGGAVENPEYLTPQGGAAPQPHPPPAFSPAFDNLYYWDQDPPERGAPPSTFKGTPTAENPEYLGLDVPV
How it was run: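 HER2 kinase preincubated 5 min with compounds (11-point 3-fold series, duplicates), then reacted 120 min at room temperature with ATP and ULight-poly GT peptide, each prepared at 4× working concentration (40 μM ATP, 400 nM substrate, 40 nM kinase). PT66 antibody added for 60 min, TR-FRET read; IC50 from inhibition curves.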

[2] = molecular target: Ba/F3 HER2 A775_G776insYVMA cells (Homo sapiens, UniProt P04626, DUP772-775, cells depend on it); test: Inhibition of cell proliferation, CTG method, Ba/F3 HER2 A775_G776insYVMA; assay type: cell-based; conditions: 72 hours, read-out: Ba/F3 HER2 A775-G776insYVMA IC50
Ba/F3 HER2 A775_G776insYVMA cells, sequence (P04626 with tags, fused parts or gaps DUP772-775): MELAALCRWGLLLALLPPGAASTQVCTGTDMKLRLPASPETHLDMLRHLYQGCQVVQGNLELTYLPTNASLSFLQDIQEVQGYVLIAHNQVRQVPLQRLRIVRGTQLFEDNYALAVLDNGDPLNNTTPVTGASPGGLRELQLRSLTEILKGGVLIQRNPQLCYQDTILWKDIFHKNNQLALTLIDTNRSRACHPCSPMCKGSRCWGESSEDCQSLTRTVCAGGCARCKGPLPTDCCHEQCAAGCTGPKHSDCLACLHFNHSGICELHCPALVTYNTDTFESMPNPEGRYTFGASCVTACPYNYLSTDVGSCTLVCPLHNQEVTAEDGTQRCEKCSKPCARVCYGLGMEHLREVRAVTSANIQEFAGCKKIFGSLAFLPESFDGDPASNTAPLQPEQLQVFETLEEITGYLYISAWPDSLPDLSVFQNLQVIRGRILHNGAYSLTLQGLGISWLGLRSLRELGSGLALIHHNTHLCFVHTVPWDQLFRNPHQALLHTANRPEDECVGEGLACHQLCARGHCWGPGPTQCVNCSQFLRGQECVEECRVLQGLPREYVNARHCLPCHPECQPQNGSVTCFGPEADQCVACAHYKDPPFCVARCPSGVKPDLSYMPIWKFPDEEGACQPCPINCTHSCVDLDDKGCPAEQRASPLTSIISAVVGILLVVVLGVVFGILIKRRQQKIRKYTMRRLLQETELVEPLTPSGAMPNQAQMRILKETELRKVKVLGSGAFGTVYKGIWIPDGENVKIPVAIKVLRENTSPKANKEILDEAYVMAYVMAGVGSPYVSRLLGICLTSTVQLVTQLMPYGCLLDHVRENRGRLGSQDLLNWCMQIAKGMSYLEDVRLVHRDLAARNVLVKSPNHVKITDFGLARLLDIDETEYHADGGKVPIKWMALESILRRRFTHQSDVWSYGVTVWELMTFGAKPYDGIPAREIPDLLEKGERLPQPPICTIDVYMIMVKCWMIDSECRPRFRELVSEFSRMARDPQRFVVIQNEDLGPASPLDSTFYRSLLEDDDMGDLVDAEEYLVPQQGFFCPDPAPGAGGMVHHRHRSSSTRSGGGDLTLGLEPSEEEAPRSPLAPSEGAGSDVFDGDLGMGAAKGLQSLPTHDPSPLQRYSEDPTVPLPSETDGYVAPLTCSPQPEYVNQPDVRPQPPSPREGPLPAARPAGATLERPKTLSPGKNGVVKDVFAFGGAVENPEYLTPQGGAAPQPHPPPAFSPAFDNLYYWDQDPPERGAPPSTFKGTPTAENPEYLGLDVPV
How it was run: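 Ba/F3 HER2 A775_G776insYVMA cells in RPMI1640 with 10% FBS were plated at 3000 cells/well and treated directly with compound (top 10 μM, 4-fold, 9 concentrations, duplicates).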

Row | Structure (SMILES) | GI50 [1] [nM] | pIC50 (EGFR^WT kinase) | pIC50 (HER2 kinase) | GI50 [2] [nM]
1 | CCN1CCC[C@@H]1/C=C/C(=O)Nc1ccc2ncnc(Nc3ccc(OCc4cccc(F)c4)c(Cl)c3)c2c1OC [Example 28, (R,E)-N-(4-((3-chloro-4-(3-fluorobenzyloxy)phenyl)amino)-5-methoxyquinazolin-6-yl)-3-(1-ethylpyrrolidin-2-yl)acrylamide] | 10 to 100 | > 8.00 | > 8.00 | 1 to 5
2 | CN1CCC[C@@H]1/C=C/C(=O)Nc1ccc2ncnc(Nc3ccc(OCc4ccccn4)c(Cl)c3)c2c1OCCCO [Example 17, (R,E)-N-(4-((3-chloro-4-(pyridin-2-ylmethoxy)phenyl)amino)-5-(3-hydroxypropoxy)quinazolin-6-yl)-3-(1-methylpyrrolidin-2-yl)acrylamide] | 10 to 100 | > 8.00 | > 8.00 | 1 to 5
3 | CN1CCC[C@@H]1/C=C/C(=O)Nc1ccc2ncnc(Nc3ccc(OCc4ccccn4)c(Cl)c3)c2c1OCCO [Example 6, (R,E)-N-(4-((3-chloro-4-(pyridin-2-ylmethoxy)phenyl)amino)-5-(2-hydroxyethoxy)quinazolin-6-yl)-3-(1-methylpyrrolidin-2-yl)acrylamide] | 5 to 10 | > 8.00 | > 8.00 | 1 to 5
